# Test system: wildtype (WT) human fibroblast cell lines
# Assay: Transcriptome-wide splicing by RNA sequencing (RNASeq), exon triplet PSI change;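 as to Effect: six WT fibroblast lines treated seven days versus DMSO vehicle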;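 as to T-PSI: T-PSI is average treated PSI after seven days of treatment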
# Type: cell-based
# Design: key to Effect: Exclusion; Inclusion; Unchanged
# From the text: FIG. 2A provides a representation of an exon triplet. Exon U is upstream of Exon X, which is upstream of Exon D. R1, R2 and R3 represent RNA sequencing (RNASeq) reads spanning the regions between two adjacent exons. UI1, I1X, XI2 and I2D are four regions flanking the four splice sites of the exon-triplet. Each flanking region consists of 25 exonic base pairs and 75 intronic base pairs.
# FIG. 2B provides a volcano plot showing the ψ (PSI: Percent Spliced-In) changes in splicing after treatment with Compound (I). Each dot represents one of the 161,097 expressed exon triplets in human fibroblasts. The x axis represents the ψ changes after treatment and the y axis represents the False Discovery Rate (FDR) (log 10 transformed). […] The horizontal dashed line indicates an FDR of 0.1. The dots on the right side of the right vertical dashed line and above the horizontal dashed line represent the exon-triplets with an increase for Exon X inclusion (Δψ≥0.1 and FDR<0.1) while the dots on left side of the left vertical dashed line and above the horizontal dashed line represent an increase for Exon X exclusion (Δψ≤−0.1 and FDR<0.1). Black dots in-between the two vertical dashed lines represent exon-triplets unchanged from the treatment.
# In some aspects, analysis is performed on data derived from the assay to measure the magnitude of splicing to determine the amount of exons spliced into an mRNA transcript that is produced in the presence of Compound (I) relative to the amount in the absence of Compound (I) or presence of a negative control. In a preferred aspect, the method utilized is calculation of change in Percent Spliced In (ΔPSI). […] The ΔPSI value is derived from the formula: […]
# The values for “a” and “b” represent the number of reads supporting the probability for potential inclusion or exclusion of an exon in an RNA transcript. The “a” value is derived from the number of reads within an exon triplet covering, in 5′ to 3′ order: the last few bases (>1 nucleotide) of an upstream exon operably linked to the first few bases (>1 nucleotide) of a middle exon. The “b” value is derived from the number of reads within an exon triplet covering, in 5′ to 3′ order: the last few bases (>1 nucleotide) of the middle exon operably linked to the first few bases (>1 nucleotide) of a downstream exon. The number of reads will indicate whether the splice junction of a middle exon has been identified as potentially having a CNN Motif(s) by the CNN Model described herein, wherein the inclusion or exclusion of the middle exon may be modulated in the presence of Compound (I) to produce one or more mature RNA isoforms from the gene transcript. The value for “c” represents the number of reads supporting the exclusion of the middle exon.
# The effect on splicing modulation and corresponding splice differences toward exon inclusion or exclusion was determined by counting the RNASeq reads covering two splice junctions of exon triplets (three consecutive exons: Exon U, Exon X, Exon D) and the corresponding intervening introns, then comparing the change in Percent Spliced In (ΔPSI or Δψ) of the middle exon (Exon X) after treatment (as shown in FIG. 2A)^52,53. 934 exon triplets were identified showing differential middle exon inclusion or exclusion in response to Compound (I) treatment. Of these, 254 were exon inclusion events (Δψ≥0.1 and FDR<0.1) and 680 were exon exclusion events (Δψ≤−0.1 and FDR<0.1) (as shown in FIG. 2B). […] The splicing results were evaluated by RT-PCR in independent replicate experiments, confirming all the calculated Δψ values. […]
# [1] = NSMCE2 Exon 126168242-126168340
structure (smiles),measurement,setting,value
"Clc1nc(NCc2ccncc2)c2cc[nH]c2n1 [Compound (I), 2-chloro-N-(pyridin-4-ylmethyl)-7H-pyrrolo[2,3-d]pyrimidin-4-amine]",Effect,NIN Exon 51233025-51233114,Unc
same,T-PSI,NIN Exon 51233025-51233114,0.896
same,ΔPSI,NIN Exon 51233025-51233114,0.008
same,Effect,NIPA2 Exon 23027801-23027922,Exc
same,T-PSI,NIPA2 Exon 23027801-23027922,0.326
same,ΔPSI,NIPA2 Exon 23027801-23027922,−0.185
same,Effect,NIPA2 Exon 23033278-23033413,Exc
same,T-PSI,NIPA2 Exon 23033278-23033413,0.608
same,ΔPSI,NIPA2 Exon 23033278-23033413,−0.163
same,Effect,NLRC5 Exon 57110731-57110814,Exc
same,T-PSI,NLRC5 Exon 57110731-57110814,0.857
same,ΔPSI,NLRC5 Exon 57110731-57110814,−0.122
same,Effect,NLRX1 Exon 119043065-119043134,Exc
same,T-PSI,NLRX1 Exon 119043065-119043134,0.742
same,ΔPSI,NLRX1 Exon 119043065-119043134,−0.143
same,Effect,NPEPPS Exon 45654447-45654526,Inc
same,T-PSI,NPEPPS Exon 45654447-45654526,0.172
same,ΔPSI,NPEPPS Exon 45654447-45654526,0.135
same,Effect,NPR2 Exon 35802729-35802800,Exc
same,T-PSI,NPR2 Exon 35802729-35802800,0.878
same,ΔPSI,NPR2 Exon 35802729-35802800,−0.101
same,Effect,NPRL3 Exon 167300-167374,Exc
same,T-PSI,NPRL3 Exon 167300-167374,0.697
same,ΔPSI,NPRL3 Exon 167300-167374,−0.155
same,Effect,NPRL3 Exon 174936-175072,Unc
same,T-PSI,NPRL3 Exon 174936-175072,0.206
same,ΔPSI,NPRL3 Exon 174936-175072,0.006
same,Effect,NPRL3 Exon 180521-180590,Unc
same,T-PSI,NPRL3 Exon 180521-180590,0.858
same,ΔPSI,NPRL3 Exon 180521-180590,0.003
same,Effect,NRG1 Exon 32620736-32620877,Inc
same,T-PSI,NRG1 Exon 32620736-32620877,0.510
same,ΔPSI,NRG1 Exon 32620736-32620877,0.182
same,Effect,NSFL1C Exon 1436359-1436364,Exc
same,T-PSI,NSFL1C Exon 1436359-1436364,0.345
same,ΔPSI,NSFL1C Exon 1436359-1436364,−0.153
same,Effect,NSFL1C Exon 1436359-1436515,Exc
same,T-PSI,NSFL1C Exon 1436359-1436515,0.214
same,ΔPSI,NSFL1C Exon 1436359-1436515,−0.123
same,Effect,[1],Inc
same,T-PSI,[1],0.162
same,ΔPSI,[1],0.133
same,Effect,NSUN4 Exon 46812593-46812747,Exc
same,T-PSI,NSUN4 Exon 46812593-46812747,0.817
same,ΔPSI,NSUN4 Exon 46812593-46812747,−0.124
same,Effect,NT5C2 Exon 104871502-104871562,Exc
same,T-PSI,NT5C2 Exon 104871502-104871562,0.351
same,ΔPSI,NT5C2 Exon 104871502-104871562,−0.306
same,Effect,NTMT1 Exon 132394929-132395080,Unc
same,T-PSI,NTMT1 Exon 132394929-132395080,0.828
same,ΔPSI,NTMT1 Exon 132394929-132395080,−0.009
same,Effect,NTPCR Exon 233091303-233091465,Unc
same,T-PSI,NTPCR Exon 233091303-233091465,0.785
same,ΔPSI,NTPCR Exon 233091303-233091465,0.009
same,Effect,NUB1 Exon 151046159-151046326,Exc
same,T-PSI,NUB1 Exon 151046159-151046326,0.858
same,ΔPSI,NUB1 Exon 151046159-151046326,−0.126
same,Effect,NUBP2 Exon 1836758-1836956,Unc
same,T-PSI,NUBP2 Exon 1836758-1836956,0.575
same,ΔPSI,NUBP2 Exon 1836758-1836956,0.006
same,Effect,NUMB Exon 73833605-73833689,Unc
same,T-PSI,NUMB Exon 73833605-73833689,0.697
same,ΔPSI,NUMB Exon 73833605-73833689,−0.003
same,Effect,NUP43 Exon 150059779-150059914,Exc
same,T-PSI,NUP43 Exon 150059779-150059914,0.865
same,ΔPSI,NUP43 Exon 150059779-150059914,−0.118
same,Effect,NUP62 Exon 50430951-50431105,Inc
same,T-PSI,NUP62 Exon 50430951-50431105,0.787
same,ΔPSI,NUP62 Exon 50430951-50431105,0.124
same,Effect,NUP98 Exon 3707294-3707424,Unc
same,T-PSI,NUP98 Exon 3707294-3707424,0.862
same,ΔPSI,NUP98 Exon 3707294-3707424,−0.009
same,Effect,NUPL2 Exon 23235458-23235534,Exc
same,T-PSI,NUPL2 Exon 23235458-23235534,0.602
same,ΔPSI,NUPL2 Exon 23235458-23235534,−0.244
same,Effect,NUTF2 Exon 67881181-67881359,Unc

# Reference: patent US20230047208A1, “RNA Splicing Modulation” (The General Hospital Corporation, priority 2020, published 2023)
